Laboratory results as given in patent US20190345202A1, “ANDROGEN RECEPTOR ANTISENSE OLIGONUCLEOTIDES” (OliPass Corporation, priority 2016, published 2019).

Assays:
[1] = tested on: 10-mer complementary DNA; test: Tm of duplex between PNA and 10-mer complementary DNA (UV/Vis); type: binding; conditions: 4 μM PNA and 4 μM 10-mer DNA, aqueous buffer pH 7.16, 10 mM sodium phosphate, 100 mM NaCl
Experimental: The PNA derivatives in Table 1 were evaluated for their binding affinity for 10-mer DNAs complementarily targeting either the N-terminal or C-terminal. The binding affinity was assessed by Tm value for the duplex between PNA and 10-mer complementary DNA. The duplex between PNA derivatives in Table 1 and fully complementary DNAs show Tm values too high to be reliably determined in aqueous buffer solution, since the buffer solution tends to boil off during the Tm measurement.
Tm values were determined on an UV/Vis spectrometer as follows. A mixed solution of 4 μM PNA oligomer and 4 μM complementary 10-mer DNA in 4 mL aqueous buffer (pH 7.16, 10 mM sodium phosphate, 100 mM NaCl) in 15 mL polypropylene falcon tube was incubated at 90° C. for a minute and slowly cooled down to ambient temperature over several minutes. Then the solution was transferred into a 3 mL quartz UV cuvette equipped with an air-tight cap, and subjected to a Tm measurement at 260 nm on an Agilent 8453 UV/Visible spectrophotometer or a similar one as described in the prior art [PCT/KR2009/001256] or with minor modifications. The 10-mer complementary DNAs for Tm measurement were purchased from Bioneer (www.bioneer.com, Dajeon, Republic of Korea) and used without further purification.

[2] = tested on: androgen receptor; test: AR IHC of skin samples after topical administration in mice; type: in vivo, mouse; conditions: topical 0.2 fM or 1 fM, skin sampled Day 24
Text: [AR IHC of Skin Sample] Following the shaving in Day 21, the mice received a single topical administration of either vehicle or “ASO 1” according to the group. In Day 24, the skin of the area with hair removal was sampled for immunohistochemistry (IHC) analysis against androgen receptor. The skin samples were cryo-sectioned and subjected to immunostaining in series with a primary anti-AR antibody (Cat. No. sc-816, Santa Cruz) at 1:100 dilution, with a secondary anti-IgG (Cat No. BA-1100, Vector) at 1:200 dilution, and then with Dylight 594-steptavidin (Cat No. SA-5594, Vector, Calif., USA) at 1:200 dilution for red fluoresence tagging. The IHC images were captured on an Olympus fluorescence microscope for changes in the AR expression level upon topical treatment with “ASO 1”.
[AR Immunohistochemistry of Skin Samples] After the hair cut in Day 27, The animals topically received further either vehicle or “ASO 10” at 1, 5, or 25 fM in Days 27 and 29. Skin samples of the back were collected in Day 30 for immunohistochemical analysis against androgen receptor. The skin samples were subjected to immunostaining against androgen receptor as described in “Example 7”. IHC images were captured on a Zeiss slide scanner. FIG. 14B is a representative set of AR IHC images. […] It would be difficult to clearly state that the AR expression in hair follicles decreased in the treatment groups due to the marked increases in the number of hair follicles in the treatment groups.

[3] = tested on: full-length AR protein; test: Western blot of AR protein in MCF7 cells; type: cell-based, human; conditions: 100 zM to 300 aM, 48 hours
Experimental: 4 culture dishes were used for 4 negative controls. 48 hours later, cells were washed 2 times with cold PBS, and then subjected to lysis with 200 μL 1× cell lysis buffer (Cat. No. 9803, Cell Signaling Tech) supplemented with 1× protease inhibitor (Cat. No. P8340, Sigma). The lysates were collected in 1.5 ml e-tube. 200 μL of each lysate was mixed with 100 μL 3× sample buffer, and boiled for 5 min at 100 ? . 20 μL of each lysate (12 lysates in total). 4 negative controls and 8 ASO treatment samples) was subjected to electrophoretic separation on a 8% SDS-PAGE gel, and transferred onto a 0.2 μm PVDF membrane. The membrane was probed with anti-AR antibody (Cat. No. 5153, Cell Signaling Tech) and anti-β-actin antibody (Cat. No. sc4778, Santa Cruz). FIG. 10A provides the AR Western blot data obtained therefrom. Multiple (negative) control samples were used to overcome technical artifacts of western blot procedures.

[4] = tested on: C57BL/6 mice; test: Hair growth in C57BL/6 mice upon topical administration (brightness score, hair weight); type: in vivo, mouse; conditions: for average hair weight: hair growth between Day 0 and Day 21
Experimental: (§1) [Hair Removal and Grouping] In Day 0, 7 week old female C57BL/6 mice were anesthetized with zoletil/rompun, and the hair in the back was cut and removed with a clipper and wax, respectively. Mice with flawless (i.e. spotless) hair removal were selected and randomly assigned into three groups (7 animals per group).
[Topical Administration] The topical solutions of “ASO 1” were prepared by diluting a mother stock solution of “ASO 1” to 0.2 fM or 1 fM in aqueous 30% (v/v) ethanol supplemented with 3% (v/v) glycerin. About 100 μL of 0 (negative control), 0.2, or 1 fM “ASO 1” was topically administered in the back of each animal using a cotton ball in Days 3, 7, 10, and 14.
[Digital Image Scoring for Hair Growth] For scoring the hair growth, the animals were anesthetized and photographed by group as shown in FIG. 11A using a digital camera at a fixed value of exposure time and illumination. The digital image for the area of the hair removal for each animal was selected and digitally scored for the average brightness over the selected area using “ImageJ” program. Lower brightness score is taken as faster hair growth. Brightness scores of individual animals were combined by group, and subjected to statistical analysis by student's t-test. FIG. 11B summarizes the relative brightness scores of the ASO treated groups against the control group. The relative brightness score tended to decrease with days in the treatment groups. […] Thus, “ASO 1” was concluded to promote hair growth upon topical administrations at 1 fM.
[Scoring by Hair Weight] In Day 21, the animals were anesthetized and the hair in the back was cut with a clipper. The hair samples from individual animals were combined by group, and weighed to evaluate the hair growth between Day 0 and Day 21. The average hair weight was 70.5 mg/animal for the control group, 90.8 mg/animal for the 0.2 fM treatment group, and 94.4 mg/animal for the 1 fM treatment group. Thus “ASO 1” was concluded to promote hair growth upon topical administrations at 0.2 fM as well as 1 fM.
as §1, with “(10” for “(7”
[Topical Administration] The topical solutions of “ASO 5” were prepared by diluting a mother stock solution of “ASO 5” to 1, 5, or 25 fM in aqueous 30% (v/v) ethanol supplemented with 3% (v/v) glycerin. About 100 μL of each ASO solution or vehicle (negative control) was topically administered to in the back of an animal using a cotton ball in Days 3, 7, 10, 14 and 21.
Following the shaving in Day 21, the animals received a single topical administration of either vehicle or “ASO 5” at 1 fM, 5 fM, or 25 fM. In Day 53, the hair in the back was collected by shaving with a clipper to determine the total amount of hair growth between Days 21 and 53. The average hair weights of the 1 fM, 5 fM, and 25 fM groups were 1,630%, 1,450%, and 771% of the non-treated group, respectively. Thus “ASO 5” was concluded to promote hair growth upon topical administrations at 1 to 25 fM.
as §1, with “(9” for “(7”
[Topical Administration] The topical solutions of “ASO 10” were prepared by diluting a mother stock solution of “ASO 10” to 1, 5, or 25 fM in aqueous 30% (v/v) ethanol supplemented with 3% (v/v) glycerin. About 100 μL of each ASO solution or vehicle (negative control) was topically administered to in the back of an animal using a cotton ball in Day 2.

[5] = tested on: human AR mRNA; test: qPCR (SYBR Green) of AR mRNA level in MCF7 cells; conditions: 5 hours

Substance | Tm Value, 10-mer DNA against C-Terminal [1] [°C] | Tm Value, 10-mer DNA against N-Terminal [1] [°C] | AR expression in hair follicles (IHC) [2] | AR expression in the muscle layer underneath the dermis (IHC) [2] | AR band intensity vs lysates without ASO treatment [3] | average hair weight ([4]; 0.2 fM topical) [mg/animal] | average hair weight ([4]; 1 fM topical) [mg/animal] | brightness score vs non-treated group ([4]; Day 13, 1 fM topical in Days 3, 7, 10, 14, lower brightness = faster hair growth) | exon message levels (exons 4-6) relative to negative control ([5]; 1 aM) | decrease of exon message levels (exons 4-6) ([5]; 100 zM)
Fethoc-C(1O2)TT-A(6)CC-A(6)GG(6)-CA(6)A-NH2 (antisense CTTACCAGGCAA; N-Fethoc, C-terminal amide, chemistry not fully specified) [ASO 13] | 87.0 | 83.0 | – | – | – | – | – | – | – | –
Fethoc-GA(5)T-AC(1O2)C-A(5)GG(6)-CAA(5)-G-NH2 (antisense GATACCAGGCAAG; N-Fethoc, C-terminal amide, chemistry not fully specified) [ASO 8] | 86.0 | 87.4 | – | – | – | – | – | – | – | –
Fethoc-TA(5)C-CAG(6)-GC(1O2)A-A(5)GG(6)-C—NH2 (antisense TACCAGGCAAGGC; chemistry not fully specified) [ASO 9] | 84.5 | 84.3 | – | – | – | – | – | – | – | –
Fmoc-GA(5)A-GC(1O2)C-A(5)GG-C(1O2)AA(5)-G-NH2 (antisense GAAGCCAGGCAAG; N-Fmoc, C-terminal amide, chemistry not fully specified) [ASO 1] | – | – | markedly inhibited | decreased | considerably weaker | 90.8 | 94.4 | significantly lower | ~60 % of the negative control | more than 80%
